Laboratory results published in US20050026785A1, “Novel phenyl-propargylether derivatives” (priority 2001, published 2005).

Assays:
Type in all cases: in vivo
Phytophthora [1] = experiment: D-3b Systemic action against Phytophthora on potato plants; settings: test D-3b systemic (soil watering), potato plants (Bintje), untreated plants showed pathogen attack of 80-100%, read-out: inhibition of fungal infestation
Experimental: (§1) D-3: Action against Phytophthora on potato plants
2-3 week old potato plants (Bintje variety) are watered with a spray mixture (0.02% active ingredient based on the volume of the soil) prepared from a wettable powder formulation of the test compound. […] After 48 hours, the treated plants are infected with a sporangia suspension of the fungus. Fungus infestation is evaluated after incubation of the infected plants for 4 days at 90-100% relative humidity and +20° C. Fungal infestation is effectively controlled with compounds of Tables 1 to 31.

Plasmopara viticola [2] = experiment: D-1a Residual-protective action against Plasmopara viticola on vines; settings: test D-1a residual-protective, vine seedlings, untreated plants showed pathogen attack of 80-100%, read-out: inhibition of fungal infestation
Experimental: (§2) D-1: Action against Plasmopara viticola on vines
(§3) a) Residual-protective action
Vine seedlings are sprayed at the 4- to 5-leaf stage with a spray mixture (0.02% active ingredient) prepared from a wettable powder formulation of the test compound. After 24 hours, the treated plants are infected with a sporangia suspension of the fungus. Fungus infestation is evaluated after incubation for 6 days at 95-100% relative humidity and +20° C.

Phytophthora [3] = experiment: D-2a Residual-protective action against Phytophthora on tomato plants; settings: test D-2a residual-protective, untreated plants showed pathogen attack of 80-100%, read-out: inhibition of fungal infestation
Experimental: (§4) D-2: Action against Phytophthora on tomato plants
as §3
(§5) After a cultivation period of 3 weeks, tomato plants are sprayed with a spray mixture (0.02% active ingredient) prepared from a wettable powder formulation of the test compound. After 48 hours, the treated plants are infected with a sporangia suspension of the fungus. Fungus infestation is evaluated after incubation of the infected plants for 5 days at 90-100% relative humidity and +20° C.

Phytophthora [4] = experiment: D-3a Residual-protective action against Phytophthora on potato plants; settings: test D-3a residual-protective, potato plants (Bintje), untreated plants showed pathogen attack of 80-100%, read-out: inhibition of fungal infestation
Experimental: as §1, §3
2-3 week old potato plants (Bintje variety) are sprayed with a spray mixture (0.02% active ingredient) prepared from a wettable powder formulation of the test compound. After 48 hours, the treated plants are infected with a sporangia suspension of the fungus. Fungus infestation is evaluated after incubation of the infected plants for 4 days at 90-100% relative humidity and +20° C.

Plasmopara viticola [5] = experiment: D-1b Residual-curative action against Plasmopara viticola on vines; settings: test D-1b residual-curative, vine seedlings, untreated plants showed pathogen attack of 80-100%, read-out: inhibition of fungal infestation
Experimental: as §2
b) Residual-Curative Action
Vine seedlings are infected at the 4- to 5-leaf stage with a sporangia suspension of the fungus. After incubation for 24 hours in a humidity chamber at 95-100% relative humidity and +20° C., the infected plants are dried and sprayed with a spray mixture (0.02% active ingredient) prepared from a wettable powder formulation of the test compound. After the spray coating has dried, the treated plants are placed in the humidity chamber again. Fungus infestation is evaluated 6 days after infection.

Phytophthora [6] = experiment: D-2b Systemic action against Phytophthora on tomato plants; settings: test D-2b systemic (soil watering), untreated plants showed pathogen attack of 80-100%, read-out: inhibition of fungal infestation
Experimental: as §4
as §5, with “watered” for “sprayed”, “ingredient based on the volume of the soil)” for “ingredient)”, “compound. […]” for “compound.”, “96” for “48”, “4” for “5”

Measured: inhibition at 200 ppm

C#CCOc1ccc(CCNC(=O)[C@@H](OCC#C)c2ccccc2)cc1OC [Compound E1.002, (S)-2-phenyl-N-[2-(3-methoxy-4-prop-2-ynyloxy-phenyl)-ethyl]-2-prop-2-ynyloxy-acetamide]
80 to 100%: all assays above

C#CCOc1ccc(CCNC(=O)[C@@H](OCC#C)c2ccc(Cl)cc2)cc1OC [Compound E1.011, (S)-2-(4-chloro-phenyl)-N-[2-(3-methoxy-4-prop-2-ynyloxy-phenyl)-ethyl]-2-prop-2-ynyloxy-acetamide]
80 to 100%: all assays above

CCC#CCOc1ccc(CCNC(=O)[C@@H](OCC)c2ccccc2)cc1OC [Compound E1.151]
80 to 100%: Phytophthora [3] | Phytophthora [6]
